Experimental findings from ChEMBL document CHEMBL4002618, “Anticomplement triterpenoids from the roots of Ilex asprella” (2017) are described below.

The test system of test [1] is Erythrocyte. Nature of the test: Anticomplement activity in New Zealand White rabbit erythrocytes assessed as concentration required for 50% hemolytic inhibition by alternative pathway preincubated for 10 mins with normal human serum followed by erythrocyte addition measured after 30 mins by spectrophotometer. It counts as functional.
Test [2] deals with Erythrocyte. Kind of test: Anticomplement activity in sheep erythrocytes assessed as concentration required for 50% hemolytic inhibition by classic pathway preincubated for 10 mins with guinea pig serum followed by erythrocyte addition measured after 30 mins by spectrophotometer. It counts as functional, Ovis aries.

Active and inactive are the calls of the source. No cut-off for these calls is given here.

In the case of `CC(=O)O[C@H]1CC[C@]2(C)[C@H]3CC=C4[C@@H]5[C@@H](C)[C@H](C)CC[C@]5(CO)CC[C@@]4(C)[C@]3(C)CC[C@H]2C1(C)C`, the result with Erythrocyte [1] (Oryctolagus cuniculus) was inactive. Also, in the test on Erythrocyte [2], the Activity was 0.46 mg/mL.
Regarding `COC(=O)[C@H]1O[C@@H](O[C@H]2CC[C@]3(C)[C@H]4CC=C5[C@@H]6[C@H](O)C(C)(C)CC[C@]6(C(=O)O)CC[C@@]5(C)[C@]4(C)CC[C@H]3C2(C)C)[C@H](O)[C@@H](O)[C@@H]1O`, the result in the test with Erythrocyte [1] (Oryctolagus cuniculus) and in the test with Erythrocyte [2] (Ovis aries) was inactive.
On to `C[C@H]1[C@H](C)CC[C@]2(C(=O)O)CC[C@]3(C)C(=CC[C@@H]4[C@@]5(C)CC[C@H](O)[C@@](C)(CO)[C@@H]5CC[C@]43C)[C@H]12`, for which the Activity with Erythrocyte [1] was determined as 0.678 mg/mL; with Erythrocyte [2], 0.161 mg/mL.
Regarding `COC(=O)[C@H]1O[C@@H](O[C@H]2CC[C@@]3(C)[C@@H](CC[C@]4(C)[C@@H]3CC=C3[C@H]5[C@](C(=O)O)(CC[C@@H](C)[C@@]5(C)O)CC[C@]34C)[C@]2(C)CO)[C@H](O)[C@@H](O)[C@@H]1O`, the result in the test with Erythrocyte [1] (Oryctolagus cuniculus) and with Erythrocyte [2] (Ovis aries) was inactive.
With `C[C@H]1CC[C@]2(C(=O)O)CC[C@]3(C)C(=CC[C@@H]4[C@@]5(C)CC[C@H](O)C(C)(C)[C@@H]5CC[C@]43C)[C@@H]2[C@]1(C)O`, the Activity with Erythrocyte [1] stood at 0.579 mg/mL; in the test on Erythrocyte [2] it was 0.237 mg/mL.
Consider `CC1(C)CC[C@]2(C(=O)O)CC[C@]3(C)C(=CC[C@@H]4[C@@]5(C)CC[C@H](O[C@@H]6OC[C@H](O)[C@H](O)[C@H]6O)C(C)(C)[C@@H]5CC[C@]43C)[C@@H]2[C@@H]1O`, for which the outcome with Erythrocyte [1] (Oryctolagus cuniculus) and with Erythrocyte [2] (Ovis aries) was inactive.
Consider `C=C1CC[C@@]23CC[C@]4(C)[C@@](OC2=O)([C@@H]3[C@H]1C)[C@H]1O[C@H]1[C@@H]1[C@@]2(C)C=C(O)C(=O)C(C)=C2[C@H](O)C[C@]14C`, for which the Activity with Erythrocyte [1] was 0.656 mg/mL; in the test with Erythrocyte [2], 0.236 mg/mL.
In the case of `C[C@H]1[C@H](C)CC[C@]2(C(=O)O)CC[C@]3(C)C(=CC[C@@H]4[C@@]5(C)C[C@H](O)[C@H](O)[C@@](C)(CO)[C@@H]5CC[C@]43C)[C@H]12`, the results for the Activity with Erythrocyte [1] and in the test on Erythrocyte [2] were 0.212 mg/mL and 0.197 mg/mL, respectively.
As for `COC(=O)[C@H]1O[C@@H](O[C@H]2CC[C@]3(C)[C@H]4CC=C5[C@H]6[C@](C(=O)O)(CC[C@H](C)[C@@]6(C)O)CC[C@@]5(C)[C@]4(C)CC[C@H]3C2(C)C)[C@H](O)[C@@H](O)[C@@H]1O`, the outcome with Erythrocyte [1] (Oryctolagus cuniculus) and in the test on Erythrocyte [2] (Ovis aries) was inactive.
Take `C[C@H]1CC[C@]2(C(=O)O[C@@H]3O[C@H](CO)[C@@H](O)[C@H](O)[C@H]3O)CC[C@]3(C)C(=CC[C@@H]4[C@@]5(C)CC[C@H](O[C@@H]6OC[C@H](O)[C@H](O)[C@H]6O)C(C)(C)[C@@H]5CC[C@]43C)[C@@H]2[C@]1(C)O`: the result with Erythrocyte [1] (Oryctolagus cuniculus) and with Erythrocyte [2] (Ovis aries) was inactive.
`C[C@@H]1CC[C@]2(C(=O)O)CC[C@]3(C)C(=CC[C@@H]4[C@@]5(C)CC[C@H](O)C(C)(C)[C@@H]5CC[C@]43C)[C@@H]2[C@]1(C)O` [POMOLIC ACID]: the Activity worked out at 0.157 mg/mL in the test on Erythrocyte [1] and 0.101 mg/mL in the test on Erythrocyte [2].
On to `CC1=C2[C@H](O)C[C@]3(C)[C@H]([C@@H]4O[C@@H]4[C@]45OC(=O)[C@@]6(CC[C@@H](C)[C@H](C)[C@H]64)CC[C@]53C)[C@@]2(C)C=C(O)C1=O`, for which the figures for the Activity with Erythrocyte [1] and with Erythrocyte [2] were 0.774 mg/mL and 0.505 mg/mL, respectively.
Take `C[C@@H]1CC[C@]2(C(=O)O[C@@H]3O[C@H](CO)[C@@H](O)[C@H](O)[C@H]3O)CC[C@]3(C)C(=CC[C@@H]4[C@@]5(C)CC[C@H](O)C(C)(C)[C@@H]5CC[C@]43C)[C@@H]2[C@]1(C)O`: the outcome in the test on Erythrocyte [1] (Oryctolagus cuniculus) and with Erythrocyte [2] (Ovis aries) was inactive.
